Results taken from publication PMC3088502 (Bioorganic & medicinal chemistry, 2011).

Key:
[1] = tested on: AKT phosphorylation at Ser473 in BxPC3 cells; assay: Detection of pAKT; format: cell-based, Human; details: 10 μM, 4 h
BxPC3 cells = assay: Cellular proliferation / cell survival micro-cytotoxicity; format: cell-based, Human

CCCCCCCCCCCCc1ccc(S(=O)(=O)Nc2ccccc2)cc1 [Compound 45]
Inhibition of AKT phosphorylation at Ser473 (pAKT), in words [1]: did not inhibit the production of pAKT
Inhibition of BxPC-3 cell proliferation, in words (BxPC3 cells): did inhibit BxPC-3 cell proliferation
